We go through 1 compound from patent US9309201B2, “Process for preparating ivabradine hydrochloride form IV and methods of treatment of disease using ivabradine hydrochloride form IV” (URQUIMA, S.A., priority 2011, dated 2016).

The data set can be described thus: Check for transformation of crystalline Form IV after tablet manufacture. Type of data set: physicochemical. How it is done:
All the components, with the exception of magnesium stearate and silica colloidal anhydrous, were mixed. Finally, silica colloidal anhydrous and magnesium stearate were added and mixed. The blend was compressed in an excentric tabletting machine.
All the components with the exception of magnesium stearate and silica colloidal anhydrous were mixed and granulated using ethanol as a granulating solvent. Then a wet calibration of the granules was performed. The obtained granules were dried followed by a dry calibration of the granules. Thereafter, silica colloidal anhydrous and magnesium stearate were added and mixed. The lubricated granulate was compressed in an eccentric tabletting machine.
Finally, tablets were coated using conventional coating agents until a weight increase of approximately 3%.

Counter-ions that a name gives are not always drawn.

Take `COc1cc2c(cc1OC)CC(=O)N(CCCN(C)C[C@H]1Cc3cc(OC)c(OC)cc31)CC2` [Form IV of ivabradine hydrochloride, ivabradine hydrochloride]: under “Example 26 tablets, blend compressed directly in an excentric tabletting machine”, the “transformation of the crystalline Form IV in tablets” value was “absence of any transformation”. Further, the “transformation of the crystalline Form IV in film-coated tablets” value (Example 27 tablets, wet granulation with ethanol, drying, compression, coating to approximately 3% weight increase) is recorded as “absence of any transformation”.
